Laboratory results published in the SangsterLogP compilation.

Legend:
[1] = from KURIHARA, Norio.; Fujita, Toshio. (1983). Composition of Partition Coefficients of Polychlorinated Hydrocarbons (Commemoration Issue Dedicated to Professor Yuzo Inouye on the Occasion of his …
[2] = not given; remark: listed apart in the source
[3] = method code SF-HPLC, from DOI: 10.1002/etc.5620110812
[4] = method code SF-HPLC, from DOI: 10.1016/j.microc.2003.08.005
[5] = method code SF-GLC, from DOI: 10.1016/s0003-2670(00)84505-5
[6] = method code SF-AS, from DOI: 10.1016/s0021-9673(01)89384-5
[7] = not given; remark: listed apart in the source
[8] = method code SF-GLC, from DOI: 10.1002/etc.5620080910
[9] = not given; remark: listed apart in the source
[10] = not given; remark: listed apart in the source
[11] = not given; remark: listed apart in the source
[12] = not given; remark: listed apart in the source
[13] = method code SF, from Huang, Q.; Wang, L.; Han, S.; Wang, G.; Gao, H. (1993). Quantitative relation between molecular structures and the hydrophobic parameters of halogenated arenes. Chemical Journal of Chinese …
[14] = method code SF-RC, from DOI: 10.1016/s0969-8051(01)00233-5, PMID: 11518650
[15] = method code SF-AS, from DOI: 10.1002/etc.5620181211
[16] = method code SF, from DOI: 10.2307/3575246, PMID: 7367588
[17] = not given; remark: listed apart in the source
[18] = method code SF, from DOI: 10.1016/s0928-0987(00)00099-3, PMID: 10915965; conditions: pH 5.0
[19] = method code SF-GLC, from DOI: 10.1021/je00020a050
[20] = method code SF-AS, from DOI: 10.1016/0378-5173(93)90388-v
[21] = method code SF-AS, from DOI: 10.1016/0041-008x(67)90079-8
[22] = not given; remark: listed apart in the source
[23] = method code SF-TN, from DOI: 10.2116/analsci.13.897; conditions: pH 2.0
[24] = not given; remark: listed apart in the source
[25] = method code SF, from DOI: 10.1016/0006-2952(91)90449-f, PMID: 1930261; conditions: pH 2.0
[26] = method code SF-AS, from DOI: 10.1016/0731-7085(96)01773-6, PMID: 8877846
[27] = not given; remark: listed apart in the source
[28] = not given; remark: listed apart in the source
[29] = method code SF-HPLC, from DOI: 10.1016/0378-5173(84)90193-5; conditions: pH 4.0
[30] = method code SF-AS, from DOI: 10.1248/cpb.40.925
[31] = method code SF, from DOI: 10.1016/0165-1218(78)90089-7, PMID: 362190
[32] = pH 7.3
[33] = method code SF, from Dai, J-Y.; Han, S.; Wang, L. (2000). Prediction of partition properties of substituted benzaldehydes using different structural parameters. Zhongguo Huanjing Kexue (China Environmental Science), …
[34] = method code SF-AS, from DOI: 10.1111/j.2042-7158.1989.tb06480.x, PMID: 2570831; conditions: pH 7.4
[35] = from Wang, L.; Xu, L.; Xu, O.; Tian, L.; Zheng, Z. (1989). Simultaneous determination of partition coefficients and acid dissociation constants of some organic dibasic acids and diacidic bases in the …
[36] = method code SF-AS, from DOI: 10.1016/j.bmc.2008.07.057, PMID: 18706818; conditions: pH 7.4
[37] = not given; remark: listed apart in the source
[38] = not given; remark: listed apart in the source
[39] = not given; remark: listed apart in the source
[40] = not given; remark: listed apart in the source
[41] = method code SF-AS, from DOI: 10.1248/cpb.26.2824
[42] = not given; remark: listed apart in the source
[43] = method code SF-AS, from DOI: 10.1248/cpb.17.2558

## C1CCCCCCC1
other
  logP: 3.28

## Cl[C@@H]1CCCC[C@@H]1Cl
[1]
  logP: 3.18

## O=[N+]([O-])c1ccccc1
[2]
  logP: 1.86

## Sc1nc2ccccc2s1
[3]
  logP: 2.41

## Cc1ccc2[nH]nnc2c1
[4]
  logP: 1.89

## COc1cc(Cl)c(Cl)c(Cl)c1O
[5]
  logP: 3.72

## Cc1ccc(C)o1
[6]
  logP: 2.24

## Oc1ccc(Cl)cc1
[7]
  logP: 2.43

## Cc1ccc([N+](=O)[O-])cc1
[2]
  logP: 2.4

## O=[N+]([O-])c1cc(Cl)c(Cl)c(Cl)c1Cl
[8]
  logP: 3.93

## c1ccc(Oc2ccccc2)cc1
[9]
  logP: 3.87

## Clc1ccc2[nH]nnc2c1
[4]
  logP: 2.17

## CCOC(C)=O
[10]
  logP: 0.53

## O=Cc1ccncc1
[11]
  logP: 0.23

## CCCC(CO)N1C=NC2C(N)=NC=NC21 (stereo not drawn)
[12]
  logP: 0.66

## CCC(C)CC
other
  logP: 2.8

## Brc1ccccc1Br
[13]
  logP: 4.07

## Clc1ccc(Br)cc1
[13]
  logP: 3.83

## Oc1c(Cl)cc(Cl)c(Cl)c1Cl
[5]
  logP: 4.3

## CN(C)CCF
[14]
  logP: 0.36

## C(=C\c1ccccn1)/c1ccccc1
[15]
  logP: 1.96

## CS(=O)CCn1ccnc1[N+](=O)[O-] (stereo not drawn)
[16]
  logP: -1.22

## CCCCCBr
[17]
  logP: 3.32

## O=[N+]([O-])c1c(Cl)cc(Cl)cc1Cl
[8]
  logP: 3.69

## COP(=O)(OC)C(C)(OC(C)=O)P(=O)(OC)OC
[18]
  logD: -1.05

## COc1cc(Cl)c(Cl)cc1OC
[19]
  logP: 3.11

## CCN1CCCC1=O
[20]
  logP: -0.04

## Clc1ccc(Cl)nc1
[21]
  logP: 2.4

## On1ccccc1=S
[22]
  logP: 0.4

## C=CCCCCCC
[17]
  logP: 4.72

## CCCC=CC(=O)O
[23]
  logD: 1.69

## O=c1[nH]cnc2nc[nH]c12
[24]
  logP: -0.96

## CN1C(=O)NC(=O)C(=O)C1=O
[25]
  logD: -1.04

## COc1ccccc1
[7]
  logP: 2.15

## COc1c(Cl)cc(Cl)cc1Cl
[19]
  logP: 4.02

## O=C1O[C@H]([C@@H](O)CO)C(O)=C1O
[26]
  logP: -1.84

## C1CCCC1
[27]
  logP: 2.8

## Clc1cc(Cl)c(Cl)nc1Cl
[21]
  logP: 3.32

## Nc1ccc([N+](=O)[O-])cn1
[28]
  logP: 0.65

## CC(=O)n1c(=O)[nH]cc(F)c1=O
[29]
  logD: -0.34

## Cn1cccc1
[30]
  logP: 1.15

## O=[N+]([O-])c1nccn1CC(O)CCl (stereo not drawn)
[31]
  logP: 0.15

## O=c1cc(CO)occ1O
[32]
  logD: -0.64

## O=Cc1ccc(Cl)c(Cl)c1
[33]
  logP: 2.53

## CCCCOCC
[12]
  logP: 2.03

## N#CSCSc1nc2ccccc2s1
[3]
  logP: 3.12

## Cn1cnc2c(N)ncnc21
[34]
  logD: -0.03

## O=C(O)CCC(=O)O
[35]
  logP: -0.61

## CCC1(C(N)=O)CCC=[N+]1[O-] (stereo not drawn)
[36]
  logD: -1.25

## O=C(O)C1CC=CCC1 (stereo not drawn)
[23]
  logD: 1.69

## CCCC(=O)n1c(=O)[nH]cc(F)c1=O
[29]
  logD: 0.67

## Clc1ccncc1
[11]
  logP: 1.37

## C#CCN(C)C(C)Cc1ccc(F)cc1 (stereo not drawn)
[26]
  logP: 3

## COc1c(Cl)cc(Cl)c(Cl)c1Cl
[37]
  logP: 4.75

## c1ccc(-c2nccnn2)cc1
[6]
  logP: 1.71

## CCCCOC(C)=O
[10]
  logP: 1.69

## Oc1cc(Cl)ccc1Cl
[38]
  logP: 3.06

## O=C(Cn1ccnc1[N+](=O)[O-])NCC(O)CO (stereo not drawn)
[16]
  logP: -1.85

## Nc1cc(Cl)ccc1Cl
[39]
  logP: 2.62

## Nc1cccnc1Cl
[15]
  logP: 0.04

## CC1CCC(=O)N1C (stereo not drawn)
[20]
  logP: -0.07

## ClC1C(Cl)C(Cl)C(Cl)C(Cl)C1Cl (stereo not drawn)
[9]
  logP: 3.67

## COP(=O)(OC)C(C)(O)P(=O)(OC)OC
[18]
  logD: -1.39

## O=C(O)c1ccccn1
[22]
  logP: -1

## CCCC(C)O (stereo not drawn)
[40]
  logP: 1.34

## COc1cc(NCc2ccc3nc(N)nc(N)c3c2C)cc(OC)c1OC
[24]; pH 13.0
  logD: 2.55

## O=C(O)c1ccccc1[N+](=O)[O-]
[41]
  logP: 1.46

## Nc1c([N+](=O)[O-])ccc2ncccc12
[28]
  logP: 1.61

## COc1c(Cl)c(Cl)cc(Cl)c1Cl
[37]
  logP: 4.68

## N#Cc1ccc([N+](=O)[O-])n1CCO
[31]
  logP: 0.6

## CCC(C)O (stereo not drawn)
[40]
  logP: 0.81

## Oc1cccc(F)c1
[38]
  logP: 1.82

## COC(=O)c1ccoc1
[30]
  logP: 1.28

## Cn1cccc(O)c1=O
[32]
  logD: -0.4

## Cc1ccccc1C(=O)O
[41]
  logP: 2.18

## CC1(C(N)=O)CCC=[N+]1[O-] (stereo not drawn)
[36]
  logD: -1.8

## CCCCC(C)=O
[42]
  logP: 1.39

## CCCCCCCCC(C)=O
[27]
  logP: 3.78

## NS(=O)(=O)c1ccc(Cl)c(Cl)c1
[43]; pH 2.0
  logD: 1.44

## ClC1=CC(Cl)C(Cl)C(Cl)C1 (stereo not drawn)
[1]
  logP: 3.52

## CCN(CC)CCF
[14]
  logP: 0.94

## CN1C(=O)C(=O)C(=O)N(C)C1=O
[25]
  logD: -0.57

## Nc1cccc(Cl)c1Cl
[39]
  logP: 2.51

## Cc1cccc(C)n1
[42]
  logP: 1.63

## Cc1ccc(C)c(C=O)c1
[33]
  logP: 1.91

## Nc1cccc(C(=O)O)c1
[35]
  logP: 0.65

## Nc1ncnc2[nH]cnc12
[34]
  logD: -0.05

## CNc1ccc(S(N)(=O)=O)cc1
[43]; pH 5.5
  logD: 0.08
